Measurements: US5416070A, “Composition for macrophage activation” (ImmunoTherapeutics, Inc., priority 1990, dated 1995)

Tested on: Human peripheral blood mononuclear cells
Assay: Activation of monocytes in vitro measured by in vitro tumor cell cytotoxicity
Format: cell-based
Description: Human peripheral blood mononuclear cells were isolated by density gradient centrifugation on 46% Percoll. 1×10^5 of the mononuclear cells were plated onto Falcon microliter plates and allowed to adhere for two hours. The non-adherent cells were removed and fresh media added. The cells were allowed to incubate for 24 hours after which various concentrations of the drug either alone or incorporated in liposomes was added. After 24 hours, the plates were washed and 1×10^4 I^125 labelled target cells were added. Following an additional 72 hours of coincubation, the plates were washed and the residual radioactivity determined. The specific cytotoxicity was calculated from the formula: [formula] The results of cytotoxicity assay of various compounds alone or incorporated in liposomes at various concentrations is given in Table 6.

Compound: CCCCCCCCCCCCCCCC(=O)OCC(COC(=O)C(C)NC(=O)CCC(NC(=O)C(C)NC(=O)C(C)OC1C(NC(C)=O)C(O)OC(CO)C1OC1OC(CO)C(O)C(O)C1NC(C)=O)C(N)=O)OC(=O)CCCCCCCCCCCCCCC [Compound IIA, 4-O-[2-acetamido-2-deoxy-β-D-glucopyranosyl]-2-acetamido-2-deoxy-3-O-[D-2-propanoyl-L-alanyl-D-isoglutaminyl-L-alanyl-1,2-dipalmitoyl-sn-glycerol]-D-glucopyranose]
- Cytotoxicity (PC/PS liposomes (7:3), 0.1 μg/ml): 1.0%
- Cytotoxicity (PC/PS liposomes (7:3), 1.0 μg/ml): 8.0%
- Cytotoxicity (PC/PS liposomes (7:3), 10.0 μg/ml): 12.0%
- Cytotoxicity (no formulation given (drug alone), 0.1 μg/ml): 5.0%
- Cytotoxicity (no formulation given (drug alone), 1.0 μg/ml): 4.0%
- Cytotoxicity (no formulation given (drug alone), 10.0 μg/ml): 3.0%
